Among the data in ChEMBL document CHEMBL3217590, “Discovery of a new class of dithiocarbamates and rhodanine scaffolds as potent antifungal agents: synthesis, biology and molecular docking” (Medchemcomm, 2012) are MIC, Activity and Ratio values, retold here.

Converted amounts (≈) assume the structure as drawn. A value given as a limit tells only on which side of the number the result lay.

Usually MIC stands for the smallest concentration in the dilution series that meets the test's criterion for growth inhibition. High values mean weaker potency, low ones greater potency.

The subject of series [1] is Candida parapsilosis. The series is described as follows: Antifungal activity against Candida parapsilosis ATCC22019 after 24 to 48 hrs by broth microdilution technique. Format: functional. Particulars: Lodderomyces parapsilosis.
Series [2] has as its system Cryptococcus neoformans. The series is described as follows: Antifungal activity against Cryptococcus neoformans after 24 to 48 hrs by broth microdilution technique. In kind it is functional. Background: Dilution methods test growth across graded concentrations, often in twofold steps.
The subject of series [3] is Aspergillus fumigatus. The experiment in a line: Antifungal activity against Aspergillus fumigatus after 72 to 96 hrs by broth microdilution technique. In kind it is functional.
Series [4] relates to Trichophyton mentagrophytes. The experiment in a line: Antifungal activity against Trichophyton mentagrophytes after 72 to 96 hrs by broth microdilution technique. In kind it is functional.
Series [5] concerns Sporothrix schenckii. The series is described as follows: Antifungal activity against Sporothrix schenckii after 72 to 96 hrs by broth microdilution technique. Format: functional.
For series [6], the system named is Candida albicans. The experiment in a line: Antifungal activity against Candida albicans after 24 to 48 hrs by broth microdilution technique. In kind it is functional.
Series [7] has as its system Candida albicans. The experiment in a line: Anticandidal activity against Candida albicans MTCC183 after 24 to 48 hrs by broth microdilution technique. In kind it is functional.
Series [8] relates to Candida albicans. The series is described as follows: Anticandidal activity against Candida albicans CDRI after 24 to 48 hrs by broth microdilution technique. Format: functional.
For series [9], the system named is Candida albicans. The series is described as follows: Anticandidal activity against amphotericin-B resistant Candida albicans after 24 to 48 hrs by broth microdilution technique. Format: functional.
The test system of series [10] is Candida albicans. The series is described as follows: Anticandidal activity against Candida albicans isolated from patient after 24 to 48 hrs by broth microdilution technique. Format: functional.
Series [11] relates to Candida albicans. The series is described as follows: Anticandidal activity against Candida albicans ATCC750 after 24 to 48 hrs by broth microdilution technique. Format: functional.
Series [12] concerns L929. The experiment in a line: Cytotoxicity against mouse L929 cells assessed as decline in cell survival at 12.5 to 50 ug/ml after 24 hrs by spectrophotometric analysis. Particulars: l929, 24 h. In kind it is cell-based.
In series [13] the test system is L929. The experiment in a line: Cytotoxicity against mouse L929 cells assessed as morphological changes up to 3.12 ug/ml after 24 hrs by giemsa staining based phase contrast microscopy. Format: cell-based. Particulars: l929, 24 h.
The subject of series [14] is Candida albicans. The series is described as follows: Anticandidal activity against Candida albicans ATCC-MYA 2950 after 24 to 48 hrs by broth microdilution technique. In kind it is functional.
For series [15], the system named is Candida albicans. The experiment in a line: Anticandidal activity against Candida albicans ATCC14053 after 24 to 48 hrs by broth microdilution technique. Format: functional.
Series [16] relates to Candida albicans. The series is described as follows: Ratio of fluconazole MIC to compound MIC against amphotericin-B resistant Candida albicans after 24 to 48 hrs by broth microdilution technique. Format: functional.
Series [17] concerns Candida albicans. The experiment in a line: Anticandidal activity against Candida albicans ATCC10231 after 24 to 48 hrs by broth microdilution technique. In kind it is functional.

In the case of `O=C1/C(=C/c2ccccc2F)SC(=S)N1Cc1ccncc1`, the MIC is 50 µg/mL (≈ 151 µM) in series [1]; 3.12 µg/mL (≈ 9.44 µM) in [2]; more than 50 µg/mL in [3]; 6.25 µg/mL (≈ 18.9 µM) in series [4]; 1.56 µg/mL (≈ 4.72 µM) in [5]; 12.5 µg/mL (≈ 37.8 µM) in series [6].

With `O=C1/C(=C/c2ccc(OCCOc3ccc(/C=C4\SC(=S)N(Cc5ccncc5)C4=O)cc3)cc2)SC(=S)N1Cc1ccncc1`, the minimal inhibitory concentration (MIC) in series [1], in [2], in series [3], in [4], in series [5] and in series [6] was more than 50 µg/mL each time.

Take `COc1cc(/C=C2\SC(=S)N(Cc3ccncc3)C2=O)cc(OC)c1OC`: the minimum inhibitory concentration (MIC) in series [1] is 50 µg/mL (≈ 124 µM); in series [2], 50 µg/mL (≈ 124 µM); in series [3], more than 50 µg/mL; in series [4], 50 µg/mL (≈ 124 µM); in [5], 25 µg/mL (≈ 62.1 µM); in series [6], 12.5 µg/mL (≈ 31.1 µM).

`O=C1/C(=C/c2ccc(OCCCOc3ccc(/C=C4\SC(=S)N(Cc5ccncc5)C4=O)cc3)cc2)SC(=S)N1Cc1ccncc1`: the MIC in series [1], in [2], in series [3], in series [4], in series [5] and in series [6] was more than 50 µg/mL each time.

For `COc1ccc(/C=C2\SC(=S)N(Cc3ccncc3)C2=O)cc1OC`, the minimal inhibitory concentration (MIC) in [1] was 25 µg/mL (≈ 67.1 µM); in series [2] it was 50 µg/mL (≈ 134 µM); in series [3] it was more than 50 µg/mL; in series [4], more than 50 µg/mL; in [5], more than 50 µg/mL; in series [6], 25 µg/mL (≈ 67.1 µM).

On to `FC(F)(F)c1ccc(CSC(=S)NCc2ccncc2)cc1`, for which the MIC was 0.78 µg/mL (≈ 2.28 µM) in series [7]; 1.56 µg/mL (≈ 4.56 µM) in [8]; 1.56 µg/mL (≈ 4.56 µM) in series [1]; 1.56 µg/mL (≈ 4.56 µM) in series [2]; 12.5 µg/mL (≈ 36.5 µM) in series [9]; 50 µg/mL (≈ 146 µM) in series [3]. For the same molecule, the MIC in series [10] is 3.12 µg/mL (≈ 9.11 µM); in series [11], 3.12 µg/mL (≈ 9.11 µM); in series [4] it was 6.25 µg/mL (≈ 18.3 µM); in series [5], 6.25 µg/mL (≈ 18.3 µM); in series [14], 1.56 µg/mL (≈ 4.56 µM); in series [6] it was 1.56 µg/mL (≈ 4.56 µM). Besides, the results for the Activity entry in series [12] and in series [13] were “Toxic” and “Non-toxic”, respectively.

Take `COc1ccc(/C=C2\SC(=S)N(Cc3ccncc3)C2=O)cc1`: the MIC in [1] was 50 µg/mL (≈ 146 µM); in [2], more than 50 µg/mL; in series [3], more than 50 µg/mL; in series [4], more than 50 µg/mL; in series [5] it was more than 50 µg/mL; in series [6] it was 50 µg/mL (≈ 146 µM).

For the molecule `O=C1/C(=C/c2ccco2)SC(=S)N1Cc1ccncc1`, the minimum inhibitory concentration (MIC) worked out at 1.56 µg/mL (≈ 5.16 µM) in [15]; 3.12 µg/mL (≈ 10.3 µM) in series [7]; 25 µg/mL (≈ 82.7 µM) in series [8]; 50 µg/mL (≈ 165 µM) in series [1]; 25 µg/mL (≈ 82.7 µM) in series [2]; 6.25 µg/mL (≈ 20.7 µM) in series [9]. The minimum inhibitory concentration (MIC) was more than 50 µg/mL in series [3]; 12.5 µg/mL (≈ 41.3 µM) in series [4]; 3.12 µg/mL (≈ 10.3 µM) in series [5]; 6.25 µg/mL (≈ 20.7 µM) in series [14]; 3.12 µg/mL (≈ 10.3 µM) in series [6]. In addition, the Activity result in series [12] was “Toxic”; in [13], “Non-toxic”. Further, the Ratio in [16] was 1.

Consider `O=C1/C(=C/c2ccc(OCCCCCOc3ccc(/C=C4\SC(=S)N(Cc5ccncc5)C4=O)cc3)cc2)SC(=S)N1Cc1ccncc1`, for which the minimum inhibitory concentration (MIC) in series [1], in series [2], in series [3], in series [4], in [5] and in [6] was more than 50 µg/mL in each case.

For `Clc1ccccc1C(c1ccccc1)(c1ccccc1)n1ccnc1` [CLOTRIMAZOLE], the minimum inhibitory concentration (MIC) in series [1] was 0.5 µg/mL (≈ 1.45 µM); in series [2], 0.25 µg/mL (≈ 0.725 µM); in series [3] it was 2 µg/mL (≈ 5.8 µM); in series [4], 2 µg/mL (≈ 5.8 µM); in series [5] it was 4 µg/mL (≈ 11.6 µM); in series [6], 0.25 µg/mL (≈ 0.725 µM).

In the case of `O=C1/C(=C/c2cccnc2)SC(=S)N1Cc1ccncc1`, the minimal inhibitory concentration (MIC) in series [15] stood at 0.78 µg/mL (≈ 2.49 µM); in series [7], 0.78 µg/mL (≈ 2.49 µM); in series [8], 1.56 µg/mL (≈ 4.98 µM); in [1] it was 6.25 µg/mL (≈ 19.9 µM); in series [2], 3.12 µg/mL (≈ 9.96 µM); in series [9], 6.25 µg/mL (≈ 19.9 µM). The minimum inhibitory concentration (MIC) amounted to 25 µg/mL (≈ 79.8 µM) in series [3]; 3.12 µg/mL (≈ 9.96 µM) in series [10]; 3.12 µg/mL (≈ 9.96 µM) in series [11]; 6.25 µg/mL (≈ 19.9 µM) in [4]; 1.56 µg/mL (≈ 4.98 µM) in series [5]; 1.56 µg/mL (≈ 4.98 µM) in [14]. Further, the values for the minimum inhibitory concentration (MIC) in series [6] and in [17] were 1.56 µg/mL (≈ 4.98 µM) and 3.12 µg/mL (≈ 9.96 µM), respectively. For the same molecule, the Ratio in [16] stood at 1.
